Experimental data reported in article PMC13081163, “Discovery of a novel Nrf2 activator that modulates mitochondrial function in neurons by regulating DHRS3-Nrf2 interaction after ischemic stroke” (Theranostics, 2026).
Where two headings read alike, the source gives them in different places.

What was measured:
[1] = Plasma and brain levels after i.v. dosing (blood-brain barrier); format: in vivo, rat; settings: for concentration at 0.25 h / concentration at 1 h / concentration at 4 h: intravenous, i.v.
Protocol: Male SD rats were intravenous injection with Cpd.51, blood and brain tissues were collected 15 min, 1 h, 4 h, 6 h, 8 h and 24 h after drug administration. Samples were measured by a Shimadzu chromatography system (Shimadzu, Kyoto, Japan) coupled with an AB Sciex triple quadrupole 4500 mass spectrometer (SCIEX Triple Quad™ 4500 LC-MS/MS, Applied Biosystems Sciex, Ontario, Canada) using Analyst 1.4.2 software. A HPLC column (ACQUITY UPLC BEH C18, 2.1 × 50 mm, 1.7 μm) were used. Protein precipitation method was used for detection: 50 μL plasma sample or brain homogenate sample were added with 200 μL acetonitrile containing internal standard for precipitation, then vortexed for 3 min. The supernatant was injected into system for analysis after centrifugation.

[2] = tested on: rat transient Middle Cerebral Artery Occlusion (tMCAO) model; experiment: Rat tMCAO model, acute phase (TTC, mNSS, peri-infarct cortex); format: in vivo
Protocol: (§1) Cpd.51 was dissolved in solvent (10% DMSO, 10% Solutol HS-15 and 80% saline). It was injected (i.v.) at dose of 3 mg/kg or 5 mg/kg in a 0.5 mL volume. The Sham group and Vehicle group were treated simultaneously with an equal volume of solvent. In the experiment to explore the treatment time window, we merely administered the drug to the rats at different time points, while all other procedures remained unchanged. In the short-term toxicity study, 10 mg/kg Cpd.51 and Oma were administered via tail vein injection at 0.5 mL daily for 7 consecutive days.
All rats were fasted for more than 12 h before the operation began. Transient focal cerebral ischemia was induced by middle cerebral artery occlusion (MCAO) in rat, as previously described, [29]. In short, after anesthetizing the rats with 2.5% tribromoethanol, the right common carotid artery (CCA), external carotid artery (ECA), and internal carotid artery (ICA) were isolated. […] The body temperature of the animals was maintained between 36.5 °C and 37.5 °C.
After the behavioral assessments, rats were euthanized and the brain harvested. Brain tissue was cut into five coronal sections (2 mm thick) and incubated in 2% TTC (298-96-4, TCI, Japan) for 20 min at 37 °C. The volume of ischemic brain injury was measured using ImageJ (US National Institutes of […], Bethesda, MD, USA).
To assess the degree of neurological impairment, we conducted modified Neurological Severity Score (mNSS) according to previous experience. The investigator was blinded to the grouping situation during the whole experiment.
The anesthetized-animals were transcardially perfused with 0.9% saline in vivo. The ischemic penumbral tissue was isolated from rats and grinded in PBS. Similarly, in vitro, the cells were digested with pancreatic enzymes and placed in PBS. Next, repeatedly freeze and thaw three times in liquid nitrogen and 37 °C water. Sample supernatant was taken for testing according to the MDA or GSH assay kit instructions (S0131M or S0053, Beyotime, China).
Brain tissue was fixed with 4% paraformaldehyde and immersed in 15% sucrose and 30% sucrose at 4 °C overnight. Coronal brain sections (thickness = 20 μm) were incubated with blocking solution for 1.5 h at room temperature followed by incubation with primary antibodies: anti-Nrf2 (1:200, CST), anti-DHRS3 (1:300, Proteintech), anti-NeuN (1:500, Servicebio), anti-GFAP (1:500, Abcam) and anti-Iba-1 (1:500, Abcam). Subsequent immunostaining assays were performed as previously described of cells.

[3] = Pharmacokinetics in male rats (LC-MS/MS); format: in vivo; settings: SD, rat, plasma
DHRS3 = experiment: Western blotting of DHRS3 in SH-SY5Y cells after OGD/R; format: cell-based, human
Protocol: The western blotting analysis was conducted as we previously described. First, the total protein was extracted using RIRA buffer and then the protein concentrations were determined using the BCA kit (P0012, Beyotime, China). The extraction of mitochondrial proteins was carried out according to the instructions (C3601, Beyotime, China). The samples were separated electrophoretically and then wet-transferred onto 0.2 μm PVDF membranes (88520, Thermo Scientific, USA). After blocking with 5% non-fat dry milk in Tris-buffered saline (TBS) (pH 7.4) containing 0.1% Tween 20 at room temperature for 2 h, the protein membranes were sequentially immersed with the primary antibody at 4 °C overnight and secondary antibody at room temperature for 1 h. Finally, the membranes were quantified using image analysis system.

[4] = Acute (7-day i.v.) toxicity in rats; format: in vivo, rat; settings: 10 mg/kg i.v. daily for 7 days
Protocol: as §1
Glutamic-pyruvic transaminase (GPT) kits (ml092635, mlbio, China), glutamic oxaloacetic transaminase (GOT) kits (ml092714, mlbio, China), creatinine (CRE) kits (M12C4L, mlbio, China) and blood urea nitrogen (BUN) kits (ml076479, China) were used to detect the serum of rats in order to evaluate liver and kidney functions. Male and female rats were randomly divided into Sham group, Cpd.51 group and Oma group. Doses were administered once daily at 10 mg/kg and body weights were recorded accordingly. Sham groups were given the same volume of solvent. After 7 days, the […] were sacrificed, serum was collected and tested according to the instructions.

[5] = 28-day long-term toxicity in rats (intragastric); format: in vivo, rat; settings: 28 days intragastric; Oma 10 mg/kg, Cpd.51 1, 3 and 10 mg/kg
Protocol: During the long-term toxicity test, rats in each group received daily intragastric administration for 28 consecutive days. Animals in the Sham group were administered a mixture of 99% sesame oil and 1% DMSO at a volume of 0.5 mL per rat. Rats in the remaining groups were intragastrically administered varying doses of the respective therapeutic agents.
During the 28-day long-term toxicity study, rats were euthanized following the completion of continuous intragastric administration. Livers and kidneys from both male and female rats in each group were photographed for macroscopic examination, and serum samples were collected for subsequent kit-based analysis. The liver/kidney index was obtained by dividing the weight of the liver/kidney by the body weight.

[6] = 5 mg/kg i.v. at 4 h post-ischemia, read at 24 h

For `CC1(C)CCC2(C(=O)NO)CCC3(C)C(C(=O)C=C4C5(C)C=C(C#N)C(=O)C(C)(C)C5CCC43C)C2C1` (centres unmarked) [Cpd.51], the “distribution to brain tissue” value ([1]; intravenous administration) was “relatively effective distribution to brain tissue”, the concentration at 0.25 h ([1]; male, SD, rat, brain, 5 mg/kg, 0.25 h, read-out: Brain) was 86.7 ± 49.3 ng/g and the concentration at 1 h ([1]; male, SD, rat, brain, 5 mg/kg, 1 h, read-out: Brain) was 29.5 ± 17.5 ng/g. It also gave a concentration at 4 h ([1]; male, SD, rat, brain, 5 mg/kg, 4 h, read-out: Brain) of 10.3 ± 4 ng/g, a Kp at 0.25 h ([1]; male, SD, rat, brain, iv, 5 mg/kg, 0.25 h) of 0.07 ± 0.04 and a Kp at 1 h ([1]; male, SD, rat, brain, iv, 5 mg/kg, 1 h) of 0.16 ± 0.12. The Kp at 4 h ([1]; male, SD, rat, brain, iv, 5 mg/kg, 4 h) was 0.28 ± 0.14, the concentration at 0.25 h ([1]; male, SD, rat, plasma, 5 mg/kg, 0.25 h, read-out: Plasma) was 1290 ± 68 ng/mL and the concentration at 1 h ([1]; male, SD, rat, plasma, 5 mg/kg, 1 h, read-out: Plasma) was 198 ± 44 ng/mL. For the same compound, the concentration at 4 h ([1]; male, SD, rat, plasma, 5 mg/kg, 4 h, read-out: Plasma) was 39.5 ± 10.4 ng/mL, the “area of infarction (TTC)” value ([2]; 3 mg/kg and 5 mg/kg i.v. at the same time as ischemia) was “significantly reduced the area of infarction” and the “infarction volume, delayed administration” value [2, 6] was “significantly diminished infarction volume”. The “mNSS scores, delayed administration” value [2, 6] was “improved mNSS scores”, the “Nrf2, HO-1 and NQO1 protein levels in peri-infarct cortex” value ([2]; 24 h post tMCAO, immunoblotting) was “significantly upregulated” and the “cell type of Nrf2 enrichment (co-staining NeuN, GFAP, Iba-1)” value ([2]; peri-infarct region, 24 h after ischemia) was “Nrf2 was selectively enriched in neurons”. For the same compound, the mNSS scores ([2]; tMCAO rats, i.v.) was “significantly inhibited the increase in mNSS scores”, the “GSH and MDA in cortical tissues” value ([2]; tMCAO rats, peri-infarct cortex) was “restoring GSH concentrations and suppressing MDA accumulation” and the half-life ([3]; 30 mg/kg, i.g. (oral)) was 6.36 h. The half-life ([3]; iv, 5 mg/kg) was 1.49 ± 0.31 h, the AUC(0-t) ([3]; po, 30 mg/kg, i.g.) was 685 ± 111 ng·h/mL and the Cmax ([3]; po, 30 mg/kg, i.g.) was 124 ± 37 ng/mL. The MRT last ([3]; po, 30 mg/kg, i.g.) was 5.17 ± 0.72 h, the bioavailability ([3]; po, 30 mg/kg, i.g., read-out: F (oral bioavailability)) was 11.5% and the “DHRS3 protein expression induced by OGD/R” value (DHRS3) was “substantially attenuated this induction”. The “liver hypertrophy, serum GPT and GOT” value [4] was “not observed”, the “serum CRE and BUN” value [4] was “did not induce these changes” and the weight gain [4] was “suppressed weight gain”. For the same compound, the body weight [5] was “neither compound significantly affected body weight” and the “plasma markers of hepatic and renal injury” value [5] was “showed no such effects at any dose tested”.
